From patent US8883789B2, “Piperazine derivatives and their use as positive allosteric modulators of mGluR5 receptors” (Boehringer Ingelheim International GmbH, priority 2011, dated 2014) come the findings set out here.

T1 sequence (P41594 21-1212): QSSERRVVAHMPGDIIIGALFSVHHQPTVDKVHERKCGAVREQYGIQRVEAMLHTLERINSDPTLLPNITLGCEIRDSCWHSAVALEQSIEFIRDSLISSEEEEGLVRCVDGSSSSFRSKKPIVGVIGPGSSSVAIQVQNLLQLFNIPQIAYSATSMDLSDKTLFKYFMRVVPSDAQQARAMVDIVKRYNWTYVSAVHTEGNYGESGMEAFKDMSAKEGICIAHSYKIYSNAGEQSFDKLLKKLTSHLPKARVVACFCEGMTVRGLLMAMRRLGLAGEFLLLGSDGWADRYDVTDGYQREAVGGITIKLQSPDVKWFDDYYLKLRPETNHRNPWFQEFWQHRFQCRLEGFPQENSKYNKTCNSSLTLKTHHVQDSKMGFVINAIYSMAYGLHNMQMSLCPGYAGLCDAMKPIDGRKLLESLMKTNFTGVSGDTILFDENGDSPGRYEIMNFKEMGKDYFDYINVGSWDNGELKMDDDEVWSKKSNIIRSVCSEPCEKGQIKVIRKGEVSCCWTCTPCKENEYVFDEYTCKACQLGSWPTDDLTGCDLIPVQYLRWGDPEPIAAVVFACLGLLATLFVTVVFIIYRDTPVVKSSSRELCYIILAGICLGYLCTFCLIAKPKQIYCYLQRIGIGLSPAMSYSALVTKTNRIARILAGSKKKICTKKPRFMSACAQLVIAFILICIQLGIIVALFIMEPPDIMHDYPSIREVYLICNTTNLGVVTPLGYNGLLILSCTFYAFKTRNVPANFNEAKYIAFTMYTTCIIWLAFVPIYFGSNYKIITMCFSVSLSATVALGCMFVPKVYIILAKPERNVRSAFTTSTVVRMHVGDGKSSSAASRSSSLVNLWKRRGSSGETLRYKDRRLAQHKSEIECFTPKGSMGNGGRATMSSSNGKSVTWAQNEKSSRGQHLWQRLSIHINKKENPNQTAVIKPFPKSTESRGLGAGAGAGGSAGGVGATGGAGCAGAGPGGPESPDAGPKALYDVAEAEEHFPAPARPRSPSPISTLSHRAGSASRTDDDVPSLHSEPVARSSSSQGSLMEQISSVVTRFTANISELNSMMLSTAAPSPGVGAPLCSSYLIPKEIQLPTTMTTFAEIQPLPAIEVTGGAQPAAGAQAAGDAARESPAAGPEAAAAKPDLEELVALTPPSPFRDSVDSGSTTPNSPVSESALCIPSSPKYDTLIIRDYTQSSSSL

This assay has as its target T1, human recombinant mGluR5 (Homo sapiens, UniProt P41594).
T1 construct: expressed in transfected cells; hygromycin and geneticin selection
Nature of the assay: positive modulation of mGluR5, calcium based FLIPR assay. Particulars: HEK 293 cell line expressing human recombinant mGluR5; Ca2+ peak height after glutamate at approximately 5% basal stimulation; nonlinear regression. In outline: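 HEK293 cells with tetracycline-free induction, Calcium-4 dye-loaded in Ringer pH 7.4. Compound added 5 min before glutamate at ~5% of maximal effect, 1% DMSO. EC50 from peak Ca2+ fluorescence, normalized to basal glutamate (100%) and 10 μM CDPPB (200%), via nonlinear regression.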
For `COc1cc(Cl)cc(C(=O)N2CCN(C(=O)c3nnn(-c4ccccc4)n3)C(C)(C)C2)n1` [Example 165], the 50% effective concentration (EC50) came out at 25 nM. As to `CC1(C)CN(C(=O)c2cccc(C(F)(F)F)c2)CCN1C(=O)c1ncn(-c2cccc(Cl)c2)n1` [Example 14], the EC50 is 25 nM. Next, `Cc1c(C(=O)N2CCN(C(=O)c3ncn(-c4cccc(Cl)c4)n3)C(C)C2)oc2ccccc12` (stereo not drawn) [Example 279]: 530 nM; `COc1ccc(C(=O)N2CCN(C(=O)c3ncn(-c4cccc(Cl)c4)n3)C(C)(C)C2)s1` [Example 76]: 233 nM; `CC1(C)CN(C(=O)c2cccc(C3CC3)n2)CCN1C(=O)c1nnn(-c2cccc(Cl)c2)n1` [Example 182]: 28 nM. Take `CC(C)(C)c1cccc(C(=O)N2CCN(C(=O)c3ncn(-c4ccccc4)n3)C(C)(C)C2)c1` [Example 130]: the EC50 stood at 31 nM. Next, `CC1(C)CN(C(=O)c2cccc(N3CCCC3)n2)CCN1C(=O)c1ncn(-c2cccc(Cl)c2)n1` [Example 51]: 102 nM. On to `CC1(C)CN(C(=O)c2ccc(Cl)c(Cl)c2)CCN1C(=O)c1ncn(-c2cccc(Cl)c2)n1` [Example 27], for which the EC50 worked out at 80 nM.

Take `COc1cccc(C(=O)N2CCN(C(=O)c3ncn(-c4cccc(Cl)c4)n3)[C@@H](C)C2)n1` [Example 300, (S)-{4-[1-(3-Chloro-phenyl)-1H-[1,2,4]triazole-3-carbonyl]-3-methyl-piperazin-1-yl}-(6-methoxy-pyridin-2-yl)-methanone]: the EC50 was 154 nM.

As to `CC1CN(C(=O)c2cc(Cl)c3c(c2)OCCO3)CCN1C(=O)c1ncn(-c2cccc(Cl)c2)n1` (stereo not drawn) [Example 283], the EC50 was found to be 233 nM.

For `CC(=O)c1cccc(C(=O)N2CCN(C(=O)c3ncn(-c4ccccc4)n3)C(C)(C)C2)n1` [Example 124], the EC50 was 145 nM. Under `COc1ccc2oc(C)c(C(=O)N3CCN(C(=O)c4ncn(-c5cccc(C)c5)n4)C(C)C3)c2c1` (stereo not drawn) [Example 290] stands 272 nM; under `CCCOc1nc(C(=O)N2CCN(C(=O)c3ncn(-c4cccc(Cl)c4)n3)C(C)(C)C2)cc2ccccc12` [Example 87], 105 nM; under `CC1(C)CN(C(=O)c2cccc(F)c2)CCN1C(=O)c1ncn(-c2ccccc2)n1` [Example 114], 233 nM.

Consider `C#CCOc1cccc(C(=O)N2CCN(C(=O)c3ncn(-c4cccc(Cl)c4)n3)C(C)(C)C2)c1` [Example 72], for which the EC50 is 64 nM. Under `CC1(C)CN(C(=O)c2cc3ccccc3c(C3CC3)n2)CCN1C(=O)c1nnn(-c2ccccc2)n1` [Example 205] stands 42 nM.

In the case of `Cc1oc2ccc(F)cc2c1C(=O)N1CCN(C(=O)c2ncn(-c3cccc(F)c3)n2)C(C)(C)C1` [Example 2], the EC50 worked out at 67 nM. For `COc1cccc(C(=O)N2CCN(C(=O)c3ncn(-c4cccc(Cl)c4)n3)CC2(C)C)n1` [Example 257, {4-[1-(3-Chloro-phenyl)-1H-[1,2,4]triazole-3-carbonyl]-2,2-dimethyl-piperazin-1-yl}-(6-methoxy-pyridin-2-yl)-methanone], the EC50 was 1100 nM. Next, `CC1(C)CN(C(=O)c2cc3ccccc3c(OCC3CC3)n2)CCN1C(=O)c1ncn(-c2ccccc2)n1` [Example 103]: 49 nM.

Consider `CC1(C)CN(C(=O)c2cc3ccccc3c(OCC3CC3)n2)CCN1C(=O)c1ncn(-c2cccc(Cl)c2)n1` [Example 85], for which the EC50 is 109 nM. As for `COc1cccc(C(=O)N2CCN(C(=O)c3nnn(-c4cccc(F)c4)n3)C(C)(C)C2)n1` [Example 202], the EC50 was 65 nM. Under `CC1(C)CN(C(=O)c2nccc(C(F)(F)F)n2)CCN1C(=O)c1ncn(-c2cccc(Cl)c2)n1` [Example 84] stands 107 nM; under `Cc1cccc(-n2cnc(C(=O)N3CCN(C(=O)c4cc(Br)c(Br)o4)CC3(C)C)n2)c1` [Example 8], 53 nM. Next, `CCC1CN(C(=O)c2ncn(-c3cccc(Cl)c3)n2)CCN1C(=O)c1cccc(OC)n1` (stereo not drawn) [Example 258, {4-[1-(3-Chloro-phenyl)-1H-[1,2,4]triazole-3-carbonyl]-2-ethyl-piperazin-1-yl}-(6-methoxy-pyridin-2-yl)-methanone]: 172 nM; `CC1(C)CN(C(=O)c2cc3ccccc3cn2)CCN1C(=O)c1ncn(-c2cccc(Cl)c2)n1` [Example 35]: 350 nM. As to `CC1(C)CN(C(=O)c2cccc(Br)c2)CCN1C(=O)c1ncn(-c2cccc(Cl)c2)n1` [Example 15], the EC50 was determined as 30 nM. Next, `COc1cccc(C(=O)N2CCN(C(=O)c3nnn(-c4cccc(Cl)c4)n3)C(C)(C)C2)n1` [Example 199]: 69 nM; `COc1cccc(C(=O)N2CCN(C(=O)c3ncn(-c4cccc(Cl)c4)n3)C(C)C2)n1` (stereo not drawn) [Example 265, {4-[1-(3-Chloro-phenyl)-1H-[1,2,4]-triazole-3-carbonyl]-3-methyl-piperazin-1-yl}-(6-methoxy-pyridin-2-yl)-methanone]: 194 nM. Next, `Cc1oc2ccc(F)cc2c1C(=O)N1CCN(C(=O)c2ncn(-c3ccccc3)n2)C(C)(C)C1` [Example 102]: 49 nM.

`CCC[C@H]1CN(C(=O)c2ncn(-c3cccc(F)c3)n2)CCN1C(=O)c1cccc(OC)n1` [Example 261, (S)-{4-[1-(3-Fluoro-phenyl)-1H-[1,2,4]triazole-3-carbonyl]-2-propyl-piperazin-1-yl}-(6-methoxy-pyridin-2-yl)-methanone]: the EC50 stood at 168 nM. Take `Cc1oc2ccccc2c1C(=O)N1CCN(C(=O)c2ncn(-c3ccccc3)n2)C(C)(C)C1` [Example 106]: the EC50 worked out at 89 nM. With `Cc1c(C(=O)N2CCN(C(=O)c3ncn(-c4ccccc4)n3)C(C)(C)C2)oc2ccccc12` [Example 134], the EC50 stood at 21 nM. Under `COc1nc(C(=O)N2CCN(C(=O)c3nnn(-c4cccc(Cl)c4)n3)C(C)(C)C2)cc2ccccc12` [Example 208] stands 125 nM; under `CC1CN(C(=O)c2ncn(-c3cccc(Cl)c3)n2)CCN1C(=O)c1cn(C)c2ccccc12` (stereo not drawn) [Example 230], 570 nM. Under `COc1cccc(C(=O)N2CCN(C(=O)c3ncn(-c4cccc(F)c4)n3)C3(CC3)C2)n1` [Example 304, {4-[1-(3-Fluoro-phenyl)-1H-[1,2,4]-triazole-3-carbonyl]-4,7-diaza-spiro[2.5]oct-7-yl}-(6-methoxy-pyridin-2-yl)-methanone] stands 845 nM. In the case of `CC1(C)CN(C(=O)c2cc3ccccc3c(C3CC3)n2)CCN1C(=O)c1ncn(-c2cccc(Cl)c2)n1` [Example 204], the 50% effective concentration (EC50) worked out at 129 nM. With `CCc1ccc(C(=O)N2CCN(C(=O)c3ncn(-c4cccc(Cl)c4)n3)C(C)(C)C2)cc1` [Example 81], the half-maximal effective concentration (EC50) amounted to 155 nM. Under `COc1cccc(C(=O)N2CCN(C(=O)c3ncn(-c4cccc(F)c4)n3)C(C)C2)n1` (stereo not drawn) [Example 297] stands 411 nM.

For `Cc1cc(C)cc(C(=O)N2CCN(C(=O)c3ncn(-c4cccc(Cl)c4)n3)C(C)(C)C2)c1` [Example 70], the concentration for a half-maximal effect (EC50) worked out at 142 nM. For `CC1(C)CN(C(=O)c2cccc(-c3ccc(C#N)cc3)c2)CCN1C(=O)c1ncn(-c2cccc(Cl)c2)n1` [Example 78], the EC50 amounted to 146 nM. With `C[C@H]1CN(C(=O)c2ncn(-c3cccc(Cl)c3)n2)CCN1C(=O)c1cc(Br)c(Br)o1` [Example 254], the EC50 came out at 157 nM. Next, `COc1cc(C(=O)N2CCN(C(=O)c3ncn(-c4cccc(F)c4)n3)CC2C)ccc1C` (stereo not drawn) [Example 233]: 476 nM.

As a reminder, the EC50 is the midpoint of the concentration-response curve.
